These results are taken from a melting point compilation (Tetko et al.; mined from patent text by program, amines drawn as free bases though some values may be those of a salt).

As for `CCC(=O)N1CCNC1=NC#N`, the melting point is 208 to 210 °C.

For the compound `CC(C)C(C)(C(N)=O)N1C(=O)C=CC1=O` (centres undefined), the melting point lay within 138 to 140 °C.

With `CC(C)[C@H](NC(=O)[C@H](CC(=O)OC(C)(C)C)NC(=O)CNC(=O)c1csc(NC(=O)NCc2ccccc2)n1)C(=O)OC(C)(C)C`, the melting point is 108 to 110 °C.

Compound `Nc1cnc(-c2ccc(Cl)cc2)n(CC(=O)NC(Cc2ccccc2)C(=O)C(F)(F)F)c1=O` (centres undefined) showed a melting point of 197 to 200 °C.

Turning to `Cc1ccc2c(c1)C(CCCCOS(C)(=O)=O)C(=O)N2` (centres undefined), the melting point was in the range of 89 to 90 °C.

Consider `CC(CS(=O)(=O)c1ccc(Oc2ccc(Cl)cc2)cc1)N(O)C=O` (centres undefined), for which the melting point fell in the range of 144 to 145 °C.

Compound `COc1cccc(P(=O)(c2ccc(C)cc2)c2ccc(C)cc2)c1I` displayed a melting point of 146 to 148 °C.

`CC(CCC(=O)N(Cc1ccccc1)Cc1ccccc1)(c1ccc(O)cc1)c1ccc(O)cc1` came in with a melting point of 203 to 207 °C.

Turning to `CCOc1cc2c3cc(OCC)c(OCC)cc3c3c(OC)ccc(OC)c3c2cc1OCC`, the melting point fell in the range of 157 to 158 °C.

As to `c1cncc(Nc2nnc(Cc3ccncc3)c3ccccc23)c1`, the melting point fell in the range of 137 to 139 °C.

For the compound `N#Cc1nn(-c2c(Cl)cc(C(F)(F)F)cc2Cl)cc1C1(C(F)(F)C(F)(F)F)CC1`, the melting point fell in the range of 105 to 106 °C.

`O=C(NCCCCSc1ccncc1)c1ccccc1O` returned a melting point of 83 to 85 °C.

Regarding `Cc1ccc(S(=O)(=O)n2cc(F)c(=O)[nH]c2=O)cc1`, the melting point is 241 to 242 °C.

For `COCCOc1ccc(/C=C/C2(O)CN3CCC2CC3)cc1` (centres undefined), the melting point lay in the range of 164 to 166 °C.

For `COc1ccc(CS(=O)(=O)c2cc3cc(Cl)ccc3oc2=O)cc1`, the melting point was in the range of 224 to 226 °C.

`FC(F)(F)Sc1cc(C(F)(F)F)[nH]c1-c1ccc(Cl)cc1`: the melting point fell in the range of 53 to 55 °C.

In turn, `COc1ccc(Nc2cc(-c3ccccc3)nc3ccccc23)cc1Cl` gave a melting point of 272 to 274 °C.

`N#CN1CCC2(CC1)CN(c1ccccc1F)c1ccccc12` had a melting point of 131 to 132 °C.

`O=C(c1ccc2ncsc2c1)N1CCC[C@H](c2nc(-c3ccc(F)cc3)no2)C1` returned a melting point of 63 to 64 °C.

`CCOC(OCC)c1ccc(C(O)(c2ccc3nc(OC)cc(-c4cccc(Cl)c4)c3c2)c2cncn2C)cc1` (centres undefined) displayed a melting point of 80 °C.

In the case of `c1ccc(CC(Cc2ccccc2)(c2nnn[nH]2)c2nnn[nH]2)cc1`, the melting point fell in the range of 228 to 230 °C.

As to `COc1cc2c(c3c1OC(C)(C)C3)C(c1cccc(-c3ccc(NC(C)=O)nc3)c1)=NC(C)(C)C2`, the melting point was in the range of 208 to 209 °C.

In turn, `CCCCOc1cc(C(=O)N(C)C)cc(S(N)(=O)=O)c1Cc1ccccc1` yielded a melting point of 199 to 201 °C.

For the compound `O=c1[nH]c2cc(Cl)ccc2c(O)c1Sc1ccccc1`, the melting point was > 300 °C.

The compound `CC(=O)N1c2ccccc2[C@@]2(C)Cc3ccccc3[C@@]12C` (relative stereo) gave a melting point of 81 °C.

In turn, `c1ccc2sc(SSN(C3CCCCC3)C3CCCCC3)nc2c1` yielded a melting point of 84 to 86 °C.

`Cc1ccccc1S(=O)(=O)NC1CCc2sc(C3=NNC(=O)CC3)cc2C1` (centres undefined) returned a melting point of 204 to 206 °C.

Consider `COC(=O)c1ccc(C(F)(F)F)cc1NC(C)=O`, for which the melting point lay in the range of 86 to 87 °C.

Turning to `COc1ccc2cccc(C(CNC(=O)CF)COS(C)(=O)=O)c2c1` (centres undefined), the melting point is 122 to 124 °C.

`O=CN[C@H]1CC[C@H](CCN2CCN(c3nccc4c3CCO4)CC2)CC1` returned a melting point of 170 °C.

For the compound `C=CCOc1ccc(CC(=O)NCC(=O)O)cc1Cl`, the melting point was in the range of 115 to 119 °C.

For `N#CC(C#N)=Cc1ccc(C=O)cc1`, the melting point was 142 °C.

Compound `CCNc1cc(NS(=O)(=O)c2ccc(N)cc2)nc(N(C)C)n1` showed a melting point of 237 to 238 °C.

`COC(=O)c1sc(C)c(C#N)c1N` registered a melting point of 209 to 210 °C.

`CCCCCCCCCCCCCCCCC(CO)OC` (centres undefined): the melting point was in the range of 36 to 38 °C.

`O=c1cc(-c2ccccc2)oc2cccc(OCCCCCCI)c12` displayed a melting point of 166 to 168 °C.

Regarding `COc1ccc(P2(=O)c3ccccc3CN2c2ccccc2)cc1OC` (centres undefined), the melting point is 84 to 86 °C.

For the compound `COC(=O)Nc1ccc(NC(=O)CN(C)C)c(N)c1`, the melting point fell in the range of 140 to 142 °C.

Take `COc1cccc2c1OCC(C#N)=C2`: the melting point was in the range of 105 to 106 °C.

With `COc1cc(Cc2cnc(NC(=O)C(C)(C)C)nc2NC(=O)C(C)(C)C)c(C=O)c(OC)c1OC`, the melting point was 162 to 163 °C.

`O=C(OCC(Cl)(Cl)Cl)c1ccc2c(c1)C(C(Cl)(Cl)Cl)OC(C(Cl)(Cl)Cl)O2` (centres undefined): the melting point is 129 to 130 °C.

`N#CC(OC1CCCCO1)c1ccc(Cl)c(Cl)c1` (centres undefined) gave a melting point of 61 °C.

`CC(C)(C)OC(=O)NC(Cc1ccc(O)cc1)C(=O)N1CCc2c(sc(N)c2C(=O)c2ccccc2)C1` (centres undefined) had a melting point of 143 to 145 °C.

As to `CC(C)C(NC(=O)OCc1ccncc1)C(=O)NC(Cc1ccccc1)C(O)C(O)C(Cc1ccccc1)NC(=O)C(NC(=O)OCc1ccncc1)C(C)C` (centres undefined), the melting point is 190 to 193 °C.

Compound `COc1cccc(CO)c1C` registered a melting point of 63 to 64 °C.

Compound `COc1cc(C(=O)NS(=O)(=O)c2ccccc2Cl)ccc1Cc1cn(C)c2ccc(CC(C)NC(=O)N(C)C)cc12` (centres undefined) had a melting point of 131 to 136 °C.

For the compound `CCOC(=O)c1c2n(c3ccc(Cl)cc3c1=O)CCS2`, the melting point came to 321 °C.

The compound `CC(C)c1cc(Cl)cc2c1OC(C(F)(F)F)C(C(=O)O)=C2` (centres undefined) came in with a melting point of 185 to 189 °C.

With `CC1NC(=O)NN=C1c1ccc(NC(=O)Nc2ccccc2)cc1` (centres undefined), the melting point was > 140 °C.

Regarding `COc1cccc([C@H](O)C[C@@H]2CCCN2C)c1` (relative stereo), the melting point is 79 to 82 °C.

As for `Nc1ccc(CCCn2cnnc2)cc1`, the melting point was in the range of 150 to 153 °C.

`COc1ccc(C=CC(=O)Nc2c(CCO)nc3c(C)cc(C)cc3c2-c2ccccc2Cl)cc1OC` returned a melting point of 115 to 116 °C.

For the compound `O=C(Nc1ccc(OC(F)(F)F)cc1)NC1CCN(C(=O)c2ccncc2)CC1`, the melting point lay within 210 to 212 °C.

Compound `Nc1ncc(C#Cc2ccc(Cl)cc2)c(N[C@H]2CC[C@H](O)CC2)n1` had a melting point of 215 to 218 °C.

For `CNC(=O)Oc1c(C)cc(C)c2c1CC(C)C2(C)C` (centres undefined), the melting point was 130 to 131 °C.

In the case of `O=C(CNc1ccccc1F)Nc1ccc([N+](=O)[O-])cc1`, the melting point lay in the range of 150 to 153 °C.

For `Nc1ccc(Oc2ncnc(Oc3ccccc3Cl)c2F)c(Cl)c1Cl`, the melting point was 162 to 163 °C.

Take `CSc1cccc(-c2ccccc2NC(=N)N(C)C)c1`: the melting point is 94 to 95 °C.

In the case of `O=C(c1ccc(F)cc1)N1CCC[C@H](c2noc([C@@H](O)c3ccccc3)n2)C1`, the melting point was in the range of 168 to 172 °C.

On to `O=C(O)c1cnc(-c2ccccc2)c2ccccc12`, for which the melting point was 215 to 217 °C.

Regarding `CN1Sc2ccccc2C(=O)C1C(=O)Nc1coc2ccccc2c1=O` (centres undefined), the melting point worked out at 290 °C.

`Cc1ccc(Cl)cc1NC(=S)n1c(C)c(C)c2ccccc21` displayed a melting point of 115 °C.

As for `CCOc1ccccc1-c1nc2c(C(N)=O)cccc2c(=O)[nH]1`, the melting point fell in the range of 252 to 254 °C.

Turning to `Fc1ccc2[nH]c(SCC(F)(F)F)nc2c1`, the melting point was 136 to 139 °C.
